# Results published in patent US20220087983A1, “ACTIVATING PYRUVATE KINASE R” (FORMA Therapeutics, Inc., priority 2020, published 2022).
# “And” between values parts separate entries of the source, which are not always exact repeats. Equal entries are not always repeated.
# Columns and labels:
# [1] = Phase 1: hematologic and hemolytic parameters in SCD patients; type: in vivo, human; conditions: blinded 300 mg Compound 1/placebo QD, individual patients Pt 1-3
# Description: Laboratory changes relative to pretreatment for each pt in the MD cohort as of Jul. In 2 of 3 SCD MD-1 pts treated with Compound 1/placebo (currently blinded), Hb increased by >1 g/dL, % reticulocytes decreased, and markers of hemolysis were improved after 14 days of treatment (compared to pre-treatment levels). Hematologic parameters returned to pre-treatment levels 4 to 7 days post-treatment (data not shown) without clinical AEs. […]
# [2] = cited from earlier work
SMILES,Hemoglobin ([1]; Day 7 (on Tx)),Indirect Bilirubin ([1]; Day 7 (on Tx)),"Reticulocytes, % ([1]; Day 7 (on Tx))",Hemoglobin ([1]; Day 14/15 (EOT)),Indirect Bilirubin ([1]; Day 14/15 (EOT)),"Reticulocytes, % ([1]; Day 14/15 (EOT))","steady state whole blood AUC higher in HbSC than HbSS genotype patients ([2]; HbSC n=11, HbSS n=220) [%]","steady state whole blood Cmax higher in HbSC than HbSS genotype patients ([2]; HbSC n=11, HbSS n=220) [%]","steady state plasma AUC higher in HbSC than HbSS genotype patients ([2]; human, in vivo) [%]","steady state plasma Cmax higher in HbSC than HbSS genotype patients ([2]; human, in vivo) [%]","increase of AUC in plasma with a high-fat, high-calorie meal ([2]; relative to fasted state) [%]","increase of AUC in whole blood with a high-fat, high-calorie meal ([2]; relative to fasted state) [%]","increase of Cmax in plasma with a high-fat, high-calorie meal ([2]; relative to fasted state) [%]","increase of Cmax in whole blood with a high-fat, high-calorie meal ([2]; relative to fasted state) [%]"
O=C([C@H](CO)c1ccccc1)N1CC2=C(C1)CN(S(=O)(=O)c1cnc3c(c1)OCCO3)C2 [Compound 1/Placebo],7.9 g/dL and 8.8 g/dL,2.5 mg/dL and 0.9 mg/dL and 0.8 mg/dL,6.8% and 5.8%,7.5 g/dL and 9.2 g/dL,3.0 mg/dL and 0.8 mg/dL and 1.0 mg/dL,0.8% and 4.2%,–,–,–,–,–,–,–,–
"CC(C)n1nccc1-c1ncccc1COc1cccc(O)c1C=O [voxelotor, 2-hydroxy-6-((2-(1-isopropyl-1H-pyrazol-5-yl)pyridin-3-yl)methoxy)benzaldehyde]",–,–,–,–,–,–,50,45,23,15,42,42,95,45
